From US20150225377A1, “VEGFR3 INHIBITORS” (CANCER THERAPEUTICS CRC PTY LIMITED, priority 2012, published 2015)

Tests used:
[1] = biological target: T1, VEGFR3 cytoplasmic domain (Homo sapiens, UniProt P35916); assay: VEGFR3 biochemical assay (AlphaScreen); details: GST-VEGFR3 cytoplasmic domain, 500 μM ATP (modified form: His-fusion, 1 μM ATP)
T1 construct: VEGFR3 cytoplasmic domain (amino acids 798-1298) was purchased as N-terminal GST-fusion protein; GST (N); purchased
Procedure: Compounds of the invention may be tested for in vitro activity in the following assay: A biotin labelled peptide is used as substrate (amino acid sequence: Biotin-[…]NH2). VEGFR3 cytoplasmic domain (amino acids 798-1298) was purchased as N-terminal GST-fusion protein (“the enzyme”). The 15 μL assay reactions are run in Greiner brand white 384-well low volume plates. All reactions contained 10 mM HEPES pH 7.4, 10 mM MgCl2, 0.01% (v/v) Tween-20, 50 μM Na3VO4, 0.01% (w/v) albumin from chicken egg white, 1 mM Dithiothreitol, 111 nM peptide substrate, 500 μM ATP, and 3.8 ng/reaction enzyme, with the enzyme being omitted from negative control reactions. Compounds were added in a volume of […] from dilution series prepared in DMSO, positive and negative control reactions receiving the same volume DMSO without compound. The plates were sealed with adhesive seals and incubated for 90 minutes at 30 degree Celsius. The reactions were stopped with the detection reagents added at the same time as follows: Product formation was quantified as amplified luminescence between PerkinElmer AlphaScreen™ beads, using Streptavidin-coated donor and anti-phosphotyrosine (P-Tyr-100) acceptor beads. To each reaction, 5 μL containing 10 mM HEPES pH 7.4, 25 mM NaCl, 100 mM EDTA, 0.01% (v/v) Tween-20, and 6.25 μg/mL of each bead type were added. Plates were incubated for 6 hours before being read on a PerkinElmer EnVision™ plate reader in HTS Alphascreen™ mode. IC50 values were obtained by calculating percent inhibition (% I) for each reaction relative to controls on the same plate (% I=(I-CN)/(CP-CN) where CN/CP are the averages of the negative/positive reactions, respectively), then fitting the % I data vs. compound concentration [I] to % I=(A+((B−A)/(1+((C/[I])̂D)))) where A is the lower asymptote, B is the upper asymptote, C is the IC50 value, and D is the slope factor.
The above assay was also run in a modified form in some cases (indicated below with *). In these cases, VEGFR3 cytoplasmic domain (amino acids 818-1177, lacking 949-1002 of UniProt accession number P35916) was expressed and purified as N-terminal Hexa-His-fusion protein (“the enzyme”), rather than using the N-terminal GST-fusion protein. The assay conditions were the same as above but with 1 μM ATP and 8 ng/reaction of the enzyme.

P397Y-FAK = biological target: T2, P397Y-FAK (Homo sapiens, UniProt Q05397); assay: P397Y-FAK inhibition MSD platform cellular biomarker assay; assay type: cell-based; details: MDA-231-LNA cells, 1 hour compound
T2 construct: endogenous in cells; host or cells: MDA-231-LNA
T2 sequence (Q05397 2-1052 limits assumed, stated change not applied): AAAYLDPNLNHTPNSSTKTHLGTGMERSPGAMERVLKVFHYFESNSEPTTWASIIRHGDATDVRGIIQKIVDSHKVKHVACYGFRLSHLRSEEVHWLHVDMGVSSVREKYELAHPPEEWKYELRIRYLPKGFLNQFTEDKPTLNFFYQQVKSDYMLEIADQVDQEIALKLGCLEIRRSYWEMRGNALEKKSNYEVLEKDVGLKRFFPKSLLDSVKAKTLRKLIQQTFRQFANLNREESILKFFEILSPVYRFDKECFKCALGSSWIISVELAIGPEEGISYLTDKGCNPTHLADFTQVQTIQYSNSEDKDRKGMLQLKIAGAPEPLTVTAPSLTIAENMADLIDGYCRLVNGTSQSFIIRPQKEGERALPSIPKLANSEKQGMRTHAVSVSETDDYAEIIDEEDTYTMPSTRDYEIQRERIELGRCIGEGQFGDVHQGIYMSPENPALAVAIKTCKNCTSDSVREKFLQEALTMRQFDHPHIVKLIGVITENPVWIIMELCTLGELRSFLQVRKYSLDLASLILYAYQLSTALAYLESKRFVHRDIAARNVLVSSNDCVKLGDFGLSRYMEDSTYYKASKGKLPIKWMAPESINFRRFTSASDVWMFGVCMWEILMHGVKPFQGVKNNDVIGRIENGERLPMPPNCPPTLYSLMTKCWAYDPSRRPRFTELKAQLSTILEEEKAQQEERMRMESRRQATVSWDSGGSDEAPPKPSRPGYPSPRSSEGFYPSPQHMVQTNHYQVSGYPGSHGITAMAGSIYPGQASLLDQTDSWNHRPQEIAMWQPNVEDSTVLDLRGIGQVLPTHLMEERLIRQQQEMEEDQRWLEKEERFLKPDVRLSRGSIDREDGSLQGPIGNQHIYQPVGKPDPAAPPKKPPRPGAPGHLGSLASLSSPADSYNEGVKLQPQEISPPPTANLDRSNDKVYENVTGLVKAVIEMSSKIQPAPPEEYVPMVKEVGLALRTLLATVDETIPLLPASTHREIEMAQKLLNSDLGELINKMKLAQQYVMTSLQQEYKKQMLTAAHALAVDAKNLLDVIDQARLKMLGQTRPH
Procedure: 96-well plates (cat#MA6000, Meso Scale Discovery) are coated with 30 μL/well of mouse monoclonal FAK antibody [63D5] (cat#ab72140, Abcam) pre-diluted in PBS to a concentration of 1 mg/mL. The plates are sealed with adhesive film and incubated for 16 hours at 4° C. The antibody is then flicked out of the plates and 150 μL of 3% [w/v] Blocker A (cat#R93AA-1, Meso Scale Discovery) is added. The plates are resealed with adhesive film and incubated at room temperature on a shaker set at medium speed for 2 hours. The plates are then washed three times with a solution containing 50 mM Tris-HCl pH 7.5, 0.15 M NaCl and 0.02% Tween-20, before cell lysate addition described below.
Cells are split 1:2 into T150 cell culture flasks 2 days prior to compound treatment. On the day prior to compound treatment, 200 μL media containing 20,000 cells is seeded into all wells of white, clear-bottom, TC treated, pclear, 96-well microtitre plates (cat#655098, Greiner Bio-One), and the plates are incubated at 37° C. and 5% CO2 for […]. 1 pUwell of compound is then added from dilution series prepared in DMSO. Negative control wells receive the same volume of DMSO without compounds, and positive control wells receive 2 μM of a control compound in the same volume of DMSO. Cells are treated for 1 hour at 37° C. and 5% CO2. The media/compounds are then flicked off and 55 pUwell of ice-cold complete lysis buffer is added. Complete lysis buffer is prepared by adding 1 tablet PhosSTOP complete phosphatase inhibitor (cat#04906837001, Roche) and 1 tablet Complete, Mini, EDTA-free, protease inhibitor (cat#04693159001, Roche) per 10 mL of incomplete lysis buffer (150 mM NaCl, 20 mM Tris-HCl pH 7.5, 1 mM EDTA, 1 mM EGTA, 1% Triton-X 100). Plates are incubated on ice for 30 minutes, with 30 seconds high speed plate shaking every 5 minutes. 40 μL/well of cell lysate is transferred to the coated, blocked and washed 96-well microtitre plates described above. The 96-well plates are sealed with adhesive film and incubated for 16 hours at 4° C. The plates are then washed three times with a solution containing 50 mM Tris-HCl pH 7.5, 0.15 M NaCl and 0.02% Tween-20 and tapped dry. 25 μL/well of detection solution (1% [w/v] Blocker A (cat#R93AA-1, Meso Scale Discovery) in 50 mM Tris-HCl pH 7.5, 0.15 M NaCl and 0.02% Tween-20, with 1:600 rabbit polyclonal FAK phospho Y397 antibody (cat#ab39967, Abcam), 1:1000 anti-rabbit sulfo-tag antibody (cat#R32AB-1 Meso Scale Discovery) and 1:40 reconstituted Blocker D-M (cat#D609-0100, Rockland Immunochemicals for Research)) is added, and the plates resealed with adhesive film and incubated for 1 hour at room temperature on a plate shaker set to medium speed. Plates are then washed three times with a solution containing 50 mM Tris-HCl pH 7.5, 0.15 M NaCl and 0.02% Tween-20 and tapped dry. 150 μL/well of Read Buffer T+Surfactant (cat#R92TC-1, Meso Scale Discovery) is then added, and pFAK-397 levels quantified using a Meso Scale Discovery SECTOR Imager 6000 instrument.

T1 sequence (P35916 798-1298 isoform P35916-1): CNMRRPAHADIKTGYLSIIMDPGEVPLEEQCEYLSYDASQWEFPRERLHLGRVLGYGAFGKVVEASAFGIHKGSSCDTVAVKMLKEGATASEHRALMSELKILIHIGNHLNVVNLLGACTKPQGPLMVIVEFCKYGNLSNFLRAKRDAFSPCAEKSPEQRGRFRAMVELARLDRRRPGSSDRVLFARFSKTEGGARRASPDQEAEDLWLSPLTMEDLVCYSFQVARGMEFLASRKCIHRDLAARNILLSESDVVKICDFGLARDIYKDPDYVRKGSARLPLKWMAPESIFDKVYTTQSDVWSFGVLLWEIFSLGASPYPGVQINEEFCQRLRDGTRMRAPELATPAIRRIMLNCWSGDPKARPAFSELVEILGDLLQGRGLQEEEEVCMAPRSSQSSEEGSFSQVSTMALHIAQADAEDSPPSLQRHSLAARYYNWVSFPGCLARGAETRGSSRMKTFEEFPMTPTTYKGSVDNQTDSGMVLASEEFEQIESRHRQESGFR

SMILES | IC50 [1] | IC50 (P397Y-FAK)
Cc1cnc(Nc2ccc(N3CCNCC3)cc2)nc1CCc1ccccc1CC(N)=O [Compound 2, 2-(2-(2-(5-methyl-2-((4-(piperazin-1-yl)phenyl)amino)pyrimidin-4-yl)ethyl)phenyl)acetamide] | 39 nM | 
NCc1ccc(Nc2ncc(C(F)(F)F)c(CCc3ccccc3CC(N)=O)n2)cc1 [Compound 3, 2-(2-(2-(2-((4-(Aminomethyl)phenyl)amino)-5-(trifluoromethyl)pyrimidin-4-yl)ethyl)phenyl)acetamide] | 97 nM | 62 nM
Cc1cnc(Nc2ccc(C3CCNCC3)nc2)nc1CCc1ccccc1CC(N)=O [Compound 4, 2-(2-(2-(5-methyl-2-((6-(piperidin-4-yl)pyridin-3-yl)amino)pyrimidin-4-yl)ethyl)phenyl)acetamide] | 35 nM | 
Cc1cnc(Nc2ccc(C3CCN(C)CC3)nc2)nc1CCc1ccccc1CC(N)=O [Compound 5, 2-(2-(2-(5-methyl-2-((6-(1-methylpiperidin-4-yl)pyridin-3-yl)amino)pyrimidin-4-yl)ethyl)phenyl)acetamide] | 28 nM | > 2000 nM
NC(=O)Cc1ccccc1CCc1nc(Nc2ccc(C(=O)N3CCNCC3)cc2)ncc1C(F)(F)F [Compound 6, 2-(2-(2-(2-((4-(piperazine-1-carbonyl)phenyl)amino)-5-(trifluoromethyl)pyrimidin-4-yl)ethyl)phenyl)acetamide] | 23 nM | 940 nM
Cc1cc(Nc2ncc(C(F)(F)F)c(CCc3ccccc3CC(N)=O)n2)ccc1C1CCNCC1 [Compound 11, 2-(2-(2-(2-((3-methyl-4-(piperidin-4-yl)phenyl)amino)-5-(trifluoromethyl)pyrimidin-4-yl)ethyl)phenyl)acetamide] | 26 nM | 16 nM
Cc1cc(Nc2ncc(C(F)(F)F)c(CCc3ccccc3CC(N)=O)n2)ccc1C1CCN(C)CC1 [Compound 12, 2-(2-(2-(2-((3-methyl-4-(1-methylpiperidin-4-yl)phenyl)amino)-5-(trifluoromethyl)pyrimidin-4-yl)ethyl)phenyl)acetamide] | 20 nM | 30 nM
Cc1cnc(Nc2ccc(C3CCNCC3)cc2)nc1CCc1ccccc1CC(N)=O [Compound 16, 2-(2-(2-(5-methyl-2-((4-(piperidin-4-yl)phenyl)amino)pyrimidin-4-yl)ethyl)phenyl)acetamide] | 22 nM | > 2000 nM
CC(N)c1ccc(Nc2ncc(C(F)(F)F)c(CCc3ccccc3CC(N)=O)n2)cc1 (stereo not drawn) [Compound 18, 2-(2-(2-(2-(4-(1-aminoethyl)phenylamino)-5-(trifluoromethyl)pyrimidin-4-yl)ethyl)phenyl)acetamide] | 46 nM | 25 nM
Cc1cnc(Nc2cccnc2)nc1CCc1ccccc1CC(N)=O [Compound 24, 2-(2-(2-(5-methyl-2-(pyridin-3-ylamino)pyrimidin-4-yl)ethyl)phenyl)acetamide] | 34 nM | > 2000 nM
Cc1cnc(Nc2ccc(OC3CCNCC3)cc2)nc1CCc1ccccc1CC(N)=O [Compound 26, 2-(2-(2-(5-methyl-2-((4-(piperidin-4-yloxy)phenyl)amino)pyrimidin-4-yl)ethyl)phenyl)acetamide] | 24 nM | > 2000 nM
Cc1cnc(Nc2cnn(C)c2)nc1CCc1ccccc1CC(N)=O [Compound 28, 2-(2-(2-(5-methyl-2-((1-methyl-^1H-pyrazol-4-yl)amino)pyrimidin-4-yl)ethyl)phenyl)acetamide] | 24 nM | > 2000 nM
Cc1cnc(Nc2ccc(C3(N)COC3)cc2)nc1CCc1ccccc1CC(N)=O [Compound 31, 2-(2-(2-(2-(4-(3-aminooxetan-3-yl)phenylamino)-5-methylpyrimidin-4-yl)ethyl)phenyl)acetamide] | 23 nM | > 2000 nM
Cc1cnc(Nc2cnn(C3CCNCC3)c2)nc1CCc1ccccc1CC(N)=O [Compound 33, 2-(2-(2-(5-Methyl-2-((1-(piperidin-4-yl)-^1H-pyrazol-4-yl)amino)pyrimidin-4-yl)ethyl)phenyl)acetamide] | 28 nM | > 2000 nM
CC(N)c1ccc(Nc2ncc(Cl)c(CCc3ccccc3CC(N)=O)n2)cc1 (stereo not drawn) [Compound 37, 2-(2-(2-(2-(4-(1-aminoethyl)phenylamino)-5-chloropyrimidin-4-yl)ethyl)phenyl)acetamide] | 12 nM | 
